# In patent publication US11555041B2, “Bridged bicyclic inhibitors of menin-MLL and methods of use” (Kura Oncology, Inc., priority 2016, dated 2023):
# Molecular target: T1, menin-MLL interaction (Menin MLL 4-43) (Homo sapiens, UniProt O00255)
# T1 sequence (O00255 1-610): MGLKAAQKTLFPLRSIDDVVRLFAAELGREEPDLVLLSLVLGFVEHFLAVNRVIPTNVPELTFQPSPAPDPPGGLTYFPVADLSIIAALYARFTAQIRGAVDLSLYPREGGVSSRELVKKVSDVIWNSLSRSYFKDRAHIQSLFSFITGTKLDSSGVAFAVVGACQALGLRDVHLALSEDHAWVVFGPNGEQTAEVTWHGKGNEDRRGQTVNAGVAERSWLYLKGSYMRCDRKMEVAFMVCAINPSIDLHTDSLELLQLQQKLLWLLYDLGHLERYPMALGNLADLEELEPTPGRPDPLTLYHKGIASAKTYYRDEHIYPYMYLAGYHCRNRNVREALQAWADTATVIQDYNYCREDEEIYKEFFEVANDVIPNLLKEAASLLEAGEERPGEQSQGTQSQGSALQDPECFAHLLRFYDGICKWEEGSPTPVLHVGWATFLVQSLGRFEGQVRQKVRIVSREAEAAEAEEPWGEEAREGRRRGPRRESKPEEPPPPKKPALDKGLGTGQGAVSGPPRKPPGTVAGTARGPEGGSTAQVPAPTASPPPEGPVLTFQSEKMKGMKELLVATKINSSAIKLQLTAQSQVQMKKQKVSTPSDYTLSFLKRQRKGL
# Test: Fluorescence polarization (FP) competition assay
# Assay type: binding
# Details: fluorescence polarization assay; read-out: Menin MLL 4-43 IC50
row,Structure (SMILES),IC50
1,Cc1c(CN2CCC(Nc3ncnc4sc(CC(F)(F)F)cc34)CC2)ccc2c1cc(C#N)n2CCC12CC(N)(C1)C2 [Compound 11],0.25 to 1 µM
2,Cc1c(CN2CCC(Nc3ncnc4sc(CC(F)(F)F)cc34)CC2)ccc2c1cc(C#N)n2CC12CC(NC(=O)C3(N)CC3)(C1)C2 [Compound 60],0.05 to 0.25 µM
3,Cc1c(CN2CCC(Nc3ncnc4sc(CC(F)(F)F)cc34)CC2)ccc2c1cc(C#N)n2CC12CC(NC(=O)CNS(C)(=O)=O)(C1)C2 [Compound 36],0.05 to 0.25 µM
4,CC[C@@H](NC)C(=O)NC12CC(Cn3c(C#N)cc4c(C)c(CN5CCC(Nc6ncnc7sc(CC(F)(F)F)cc67)CC5)ccc43)(C1)C2 [Compound 70],< 0.05 µM
5,Cc1c(CN2CCC(Nc3ncnc4sc(CC(F)(F)F)cc34)CC2)ccc2c1cc(C#N)n2CC12CC(NC(=O)CN3CCOCC3)(C1)C2 [Compound 56],< 0.05 µM
6,Cc1c(CN2CCC(Nc3ncnc4sc(CC(F)(F)F)cc34)CC2)ccc2c1cc(C#N)n2CC12CC(N(C)C)(C1)C2 [Compound 5],0.25 to 1 µM
7,Cc1c(CN2CCC(Nc3ncnc4sc(CC(F)(F)F)cc34)CC2)ccc2c1cc(C#N)n2CC12CC(NC(=O)C3CCCN3)(C1)C2 (stereo not drawn) [Compound 41],< 0.05 µM
8,C=CC(=O)N[C@H]1C[C@@H](Cn2c(C#N)cc3c(C)c(CN4CCC(Nc5ncnc6sc(CC(F)(F)F)cc56)CC4)ccc32)C1 [Compound 29],0.05 to 0.25 µM
9,CCC(=O)NC12CC(Cn3c(C#N)cc4cc(CN5CCC(Nc6ncnc7sc(CC(F)(F)F)cc67)CC5)c(O)cc43)(C1)C2 [Compound 75],0.05 to 0.25 µM
10,Cc1c(CN2CCC(Nc3ncnc4sc(CC(F)(F)F)cc34)CC2)ccc2c1cc(C#N)n2CC12CC(NC(=O)Cc3ccccc3)(C1)C2 [Compound 77],0.25 to 1 µM
11,CNc1nc(NC2CCN(Cc3ccc4c(cc(C#N)n4CC45CC(NC=O)(C4)C5)c3C)CC2)c2cc(CC(F)(F)F)sc2n1 [Compound 85],< 0.05 µM
12,Cc1c(CN2CCC(Nc3ncnc4sc(CC(F)(F)F)cc34)CC2)ccc2c1cc(C#N)n2CC12CC(NC(=O)C(N)CC(F)(F)F)(C1)C2 (stereo not drawn) [Compound 74],0.25 to 1 µM
13,Cc1c(CN2CCC(Nc3ncnc4sc(CC(F)(F)F)cc34)CC2)ccc2c1cc(C#N)n2CC12CC(NC(=O)C(N)c3ccccc3)(C1)C2 (stereo not drawn) [Compound 65],< 0.05 µM
14,CNc1nc(NC2CCN(Cc3ccc4c(cc(C#N)n4CC45CC(NC(=O)Cc6ccccc6N)(C4)C5)c3C)CC2)c2cc(CC(F)(F)F)sc2n1 [Compound 80],< 0.05 µM
15,CC(=O)N[C@H]1C[C@H](Cn2c(C#N)cc3c(C)c(CN4CCC(Nc5ncnc6sc(CC(F)(F)F)cc56)CC4)ccc32)C1 [Compound 32],0.05 to 0.25 µM
16,Cc1c(CN2CCC(Nc3ncnc4sc(CC(F)(F)F)cc34)CC2)ccc2c1cc(C#N)n2CC12CC(C(=O)NCCN)(C1)C2 [Compound 37],< 0.05 µM
17,CCC(=O)NC12CC(Cn3c(C#N)cc4c(C)c(CN5CCC(Nc6nc(C)nc7sc(CC(F)(F)F)cc67)CC5)ccc43)(C1)C2 [Compound 55],0.05 to 0.25 µM

row,Structure (SMILES),IC50
1,CCCCC(NC)C(=O)NC12CC(Cn3c(C#N)cc4c(C)c(CN5CCC(Nc6ncnc7sc(CC(F)(F)F)cc67)CC5)ccc43)(C1)C2 (stereo not drawn) [Compound 73],0.05 to 0.25 µM
2,Cc1c(CN2CCC(Nc3ncnc4sc(CC(F)(F)F)cc34)CC2)ccc2c1cc(C#N)n2CC12CC(NC(=O)CNC=O)(C1)C2 [Compound 33],0.25 to 1 µM
3,C=CC(=O)N[C@H]1C[C@H](Cn2c(C#N)cc3c(C)c(CN4CCC(Nc5ncnc6sc(CC(F)(F)F)cc56)CC4)ccc32)C1 [Compound 30],0.05 to 0.25 µM
4,CCC(=O)NC12CC(CCn3c(C#N)cc4c(C)c(CN5CCC(Nc6ncnc7sc(CC(F)(F)F)cc67)CC5)ccc43)(C1)C2 [Compound 12],> 1 µM
5,Cc1c(CN2CCC(Nc3ncnc4sc(CC(F)(F)F)cc34)CC2)ccc2c1cc(C#N)n2CC12CC(NC(=O)C3CCCN3C)(C1)C2 (stereo not drawn) [Compound 58],< 0.05 µM
6,CNC(CO)C(=O)NC12CC(Cn3c(C#N)cc4c(C)c(CN5CCC(Nc6ncnc7sc(CC(F)(F)F)cc67)CC5)ccc43)(C1)C2 (stereo not drawn) [Compound 76],< 0.05 µM
7,Cc1c(CN2CCC(Nc3ncnc4sc(CC(F)(F)F)cc34)CC2)ccc2c1cc(C#N)n2CC12CC(NC(=O)C3(O)CC3)(C1)C2 [Compound 68],0.05 to 0.25 µM
8,Cc1c(CN2CCC(Nc3ncnc4sc(CC(F)(F)F)cc34)CC2)ccc2c1cc(C#N)n2CC12CC(N)(C1)C2 [Compound 13],0.05 to 0.25 µM
9,CCC(=O)NC12CC(Cn3c(C#N)cc4c(C)c(CN5CCC(Nc6nc(NC)nc7sc(CC(F)(F)F)cc67)CC5)ccc43)(C1)C2 [Compound 86],< 0.05 µM
10,CC[C@@H](N)C(=O)NC12CC(Cn3c(C#N)cc4c(C)c(CN5CCC(Nc6ncnc7sc(CC(F)(F)F)cc67)CC5)ccc43)(C1)C2 [Compound 71],< 0.05 µM
11,CNc1nc(NC2CCN(Cc3ccc4c(cc(C#N)n4CC45CC(NC(=O)Cc6cccc(N)c6)(C4)C5)c3C)CC2)c2cc(CC(F)(F)F)sc2n1 [Compound 79],< 0.05 µM
12,CCC(=O)NC12CC(Cn3c(C#N)cc4c(C)c(CN5CCC(Nc6nc(N)nc7sc(CC(F)(F)F)cc67)CC5)ccc43)(C1)C2 [Compound 54],< 0.05 µM
13,CCCCC(N)C(=O)NC12CC(Cn3c(C#N)cc4c(C)c(CN5CCC(Nc6ncnc7sc(CC(F)(F)F)cc67)CC5)ccc43)(C1)C2 (stereo not drawn) [Compound 72],0.05 to 0.25 µM
14,Cc1c(CN2CCC(Nc3ncnc4sc(CC(F)(F)F)cc34)CC2)ccc2c1cc(C#N)n2CC12CC(NC(=O)Cc3cccc(N)c3)(C1)C2 [Compound 78],0.25 to 1 µM
15,Cc1c(CN2CCC(Nc3ncnc4sc(CC(F)(F)F)cc34)CC2)ccc2c1cc(C#N)n2CC12CC(NC(=O)C(N)C(F)(F)F)(C1)C2 (stereo not drawn) [Compound 69],0.25 to 1 µM
16,CC(=O)N[C@H]1C[C@@H](Cn2c(C#N)cc3c(C)c(CN4CCC(Nc5ncnc6sc(CC(F)(F)F)cc56)CC4)ccc32)C1 [Compound 31],0.25 to 1 µM
17,Cc1c(CN2CCC(Nc3ncnc4sc(CC(F)(F)F)cc34)CC2)ccc2c1cc(C#N)n2CC12CC(C(=O)O)(C1)C2 [Compound 20],> 1 µM

# The remaining lines, values ahead:
row,IC50,Structure (SMILES)
1,0.05 to 0.25 µM,COCC(=O)NC12CC(Cn3c(C#N)cc4c(C)c(CN5CCC(Nc6ncnc7sc(CC(F)(F)F)cc67)CC5)ccc43)(C1)C2 [Compound 43]
2,0.05 to 0.25 µM,Cc1c(CN2CCC(Nc3ncnc4sc(CC(F)(F)F)cc34)CC2)ccc2c1cc(C#N)n2CC12CC(NC(=O)C(C)(C)O)(C1)C2 [Compound 63]
3,< 0.05 µM,CNCC(=O)NC12CC(Cn3c(C#N)cc4c(C)c(CN5CCC(Nc6ncnc7sc(CC(F)(F)F)cc67)CC5)ccc43)(C1)C2 [Compound 48]
4,0.05 to 0.25 µM,CC(=O)NC12CC(Cn3c(C#N)cc4c(C)c(CN5CCC(Nc6ncnc7sc(CC(F)(F)F)cc67)CC5)ccc43)(C1)C2 [Compound 2]
5,< 0.05 µM,Cc1c(CN2CCC(Nc3ncnc4sc(CC(F)(F)F)cc34)CC2)ccc2c1cc(C#N)n2CC12CC(NC(=O)C(C)(C)N)(C1)C2 [Compound 59]
6,< 0.05 µM,Cc1c(CN2CCC(Nc3ncnc4sc(CC(F)(F)F)cc34)CC2)ccc2c1cc(C#N)n2CC12CC(NC=O)(C1)C2 [Compound 15]
7,0.05 to 0.25 µM,Cc1c(CN2CCC(Nc3ncnc4sc(CC(F)(F)F)cc34)CC2)ccc2c1cc(C#N)n2CC12CC(NC(=O)C(C)O)(C1)C2 (stereo not drawn) [Compound 66]
8,< 0.05 µM,Cc1c(CN2CCC(Nc3ncnc4sc(CC(F)(F)F)cc34)CC2)ccc2c1cc(C#N)n2CC12CC(NC(=O)CN)(C1)C2 [Compound 17]
9,0.05 to 0.25 µM,Cc1c(CN2CCC(Nc3ncnc4sc(CC(F)(F)F)cc34)CC2)ccc2c1cc(C#N)n2CC12CC(NC(=O)CO)(C1)C2 [Compound 16]
10,< 0.05 µM,Cc1c(CN2CCC(Nc3ncnc4sc(CC(F)(F)F)cc34)CC2)ccc2c1cc(C#N)n2CC12CC(NC(=O)CCN)(C1)C2 [Compound 39]
11,0.05 to 0.25 µM,Cc1c(CN2CCC(Nc3ncnc4sc(CC(F)(F)F)cc34)CC2)ccc2c1cc(C#N)n2CC12CC(NC(=O)c3cnc[nH]3)(C1)C2 [Compound 38]
12,0.25 to 1 µM,Cc1c(CN2CCC(Nc3ncnc4sc(CC(F)(F)F)cc34)CC2)ccc2c1cc(C#N)n2CC12CC(NC(=O)C(F)(F)F)(C1)C2 [Compound 6]
13,0.25 to 1 µM,"Cc1c(CN2CCC(Nc3ncnc4sc(CC(F)(F)F)cc34)CC2)ccc2c1cc(C#N)n2CC12CC(NC(=O)CN)(C1)C2 (single isomer, unassigned) [Compound 61]"
14,0.05 to 0.25 µM,CNC12CC(Cn3c(C#N)cc4c(C)c(CN5CCC(Nc6ncnc7sc(CC(F)(F)F)cc67)CC5)ccc43)(C1)C2 [Compound 10]
15,0.05 to 0.25 µM,Cc1c(CN2CCC(Nc3ncnc4sc(CC(F)(F)F)cc34)CC2)ccc2c1cc(C#N)n2CC12CC(NC(=O)C3CC3)(C1)C2 [Compound 9]
16,< 0.05 µM,Cc1c(CN2CCC(Nc3ncnc4sc(CC(F)(F)F)cc34)CC2)ccc2c1cc(C#N)n2CC12CC(NC(=O)CN(C)C)(C1)C2 [Compound 40]
17,0.05 to 0.25 µM,Cc1c(CN2CCC(Nc3ncnc4sc(CC(F)(F)F)cc34)CC2)ccc2c1cc(C#N)n2CC12CC(NC(=O)C(O)CO)(C1)C2 (stereo not drawn) [Compound 67]
18,< 0.05 µM,CNC(=O)NC12CC(Cn3c(C#N)cc4c(C)c(CN5CCC(Nc6ncnc7sc(CC(F)(F)F)cc67)CC5)ccc43)(C1)C2 [Compound 7]
19,0.05 to 0.25 µM,Cc1c(CN2CCC(Nc3ncnc4sc(CC(F)(F)F)cc34)CC2)ccc2c1cc(C#N)n2CC12CC(NC(=O)c3ccc[nH]3)(C1)C2 [Compound 34]
20,< 0.05 µM,Cc1c(CN2CCC(Nc3ncnc4sc(CC(F)(F)F)cc34)CC2)ccc2c1cc(C#N)n2CC12CC(NC(=O)c3cccc(=O)[nH]3)(C1)C2 [Compound 35]
